From the supplement of paper PMC10307832

Assays:
Test in all cases: relative viability (nuclei count vs DMSO), 5 days (fraction); higher = more cells survive
XMD13-2 + Dasatinib = compound: C1CC1C(=O)NC2=NNC3=C2C=CC(=C3)C4=CC(=CC=C4)C(=O)NC5CC5 [XMD13-2] + Cc1nc(Nc2ncc(C(=O)Nc3c(C)cccc3Cl)s2)cc(N2CCN(CCO)CC2)n1 [Dasatinib] (partner 0.075 µM)
Outline: (§1)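 After 5 days of treatment, lung cancer cells in 1536-well plates were fixed and stained in a single step (final 0.05% Triton X-100, 1% formaldehyde, 1 ug/ml Hoechst) and their nuclei counted on 4× images. Treatment had been applied by pin tool the day after seeding as one drug alone or as a fixed anchor-drug dose with five library-drug doses (not always all listed) in √10 steps. Relative viability is the nuclei count of treated wells divided by that of vehicle wells, and values are medians of duplicate plates.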

XMD13-2 + Bortezomib = compound: C1CC1C(=O)NC2=NNC3=C2C=CC(=C3)C4=CC(=CC=C4)C(=O)NC5CC5 [XMD13-2] + CC(C)C[C@H](NC(=O)[C@H](Cc1ccccc1)NC(=O)c1cnccn1)B(O)O [Bortezomib] (partner 0.002 µM)
Outline: as §1

Dasatinib + Trametinib = compound: Cc1nc(Nc2ncc(C(=O)Nc3c(C)cccc3Cl)s2)cc(N2CCN(CCO)CC2)n1 [Dasatinib] + CC(=O)Nc1cccc(-n2c(=O)n(C3CC3)c(=O)c3c(Nc4ccc(I)cc4F)n(C)c(=O)c(C)c32)c1 [Trametinib] (partner 0.02 µM)
Outline: as §1

Dasatinib + Pemetrexed = compound: Cc1nc(Nc2ncc(C(=O)Nc3c(C)cccc3Cl)s2)cc(N2CCN(CCO)CC2)n1 [Dasatinib] + Nc1nc2[nH]cc(CCc3ccc(C(=O)N[C@@H](CCC(=O)O)C(=O)O)cc3)c2c(=O)[nH]1 [Pemetrexed] (partner 0.2 µM)
Outline: as §1

Cell Line | relative viability (XMD13-2 + Dasatinib; first compound 0.05 µM) | relative viability (XMD13-2 + Dasatinib; first compound 0.1581 µM) | relative viability (XMD13-2 + Dasatinib; first compound 0.5 µM) | relative viability (XMD13-2 + Dasatinib; first compound 1.581 µM) | relative viability (XMD13-2 + Dasatinib; first compound 5 µM) | relative viability (XMD13-2 + Bortezomib; first compound 0.05 µM) | relative viability (XMD13-2 + Bortezomib; first compound 0.1581 µM) | relative viability (XMD13-2 + Bortezomib; first compound 0.5 µM) | relative viability (XMD13-2 + Bortezomib; first compound 1.581 µM) | relative viability (XMD13-2 + Bortezomib; first compound 5 µM) | relative viability (Dasatinib + Trametinib; first compound 0.005 µM) | relative viability (Dasatinib + Trametinib; first compound 0.01581 µM) | relative viability (Dasatinib + Trametinib; first compound 0.05 µM) | relative viability (Dasatinib + Trametinib; first compound 0.1581 µM) | relative viability (Dasatinib + Trametinib; first compound 0.5 µM) | relative viability (Dasatinib + Pemetrexed; first compound 0.005 µM) | relative viability (Dasatinib + Pemetrexed; first compound 0.01581 µM) | relative viability (Dasatinib + Pemetrexed; first compound 0.05 µM) | relative viability (Dasatinib + Pemetrexed; first compound 0.1581 µM) | relative viability (Dasatinib + Pemetrexed; first compound 0.5 µM)
NCI-H1623 | 0.533 | 0.52 | 0.467 | 0.526 | 0.585 |  |  |  |  |  |  |  |  |  |  |  |  |  |  | 
HCC-827 | 0.321 | 0.21 | 0.317 | 0.253 | 0.337 | 1.05 | 1.02 | 1.04 | 0.957 | 1.04 | 0.545 | 0.486 | 0.492 | 0.157 | 0.132 | 0.253 | 0.251 | 0.256 | 0.239 | 0.133
NCI-H322M | 0.237 | 0.239 | 0.24 | 0.263 | 0.283 | 1.34 | 1.29 | 1.3 | 1.28 | 1.54 | 0.543 | 0.44 | 0.429 | 0.333 | 0.269 | 0.576 | 0.495 | 0.394 | 0.273 | 0.231
ChaGo-K-1 | 0.651 | 0.533 | 0.604 | 0.602 | 0.517 | 1.09 | 1.02 | 1.02 |  | 0.911 | 0.89 | 0.855 | 0.95 | 0.777 | 0.6 | 0.256 | 0.255 | 0.254 | 0.244 | 0.235
BEN | 0.321 | 0.327 | 0.343 | 0.246 | 0.331 | 1.2 | 0.83 | 0.847 | 0.712 | 0.801 | 0.891 | 0.614 | 0.8 | 0.528 | 0.511 | 0.596 | 0.572 | 0.511 | 0.478 | 0.448
NCI-H2347 | 0.638 | 0.292 | 0.284 | 0.298 | 0.304 | 1.02 | 0.977 | 1.09 | 0.952 | 1.09 | 0.25 | 0.277 | 0.221 | 0.157 | 0.164 | 0.375 | 0.38 | 0.342 | 0.253 | 0.259
LOU-NH91 | 0.591 | 0.586 | 0.566 | 0.479 | 0.525 | 0.501 | 0.451 | 0.538 | 0.444 | 0.556 | 0.79 | 0.752 | 0.698 | 0.562 | 0.393 | 0.414 | 0.389 | 0.407 | 0.377 | 0.319
NCI-H2228 | 0.753 | 0.586 | 0.59 | 0.384 | 0.532 | 1.48 | 1.16 | 1 | 1 | 0.872 | 0.463 | 0.776 | 0.556 | 0.39 | 0.249 | 0.323 | 0.325 | 0.319 | 0.259 | 0.128
NCI-H2342 | 0.334 | 0.357 | 0.334 | 0.313 | 0.349 |  |  |  |  |  | 0.662 | 0.722 | 0.774 | 0.515 | 0.294 | 0.742 | 0.705 | 0.676 | 0.514 | 0.285
